One assay has as its target MDM2 (Homo sapiens, UniProt Q00987). Briefly: Competitive fluorescence polarization assay for MDM2. Type of assay: binding. The conditions noted are these: competitive FP assay, MDM2; for IC50: read-out: IC50 (MDM2); for Ki: read-out: Ki (MDM2).
A further assay addresses T1, MDMX (Homo sapiens, UniProt O15151).
T1 sequence (O15151 1-125): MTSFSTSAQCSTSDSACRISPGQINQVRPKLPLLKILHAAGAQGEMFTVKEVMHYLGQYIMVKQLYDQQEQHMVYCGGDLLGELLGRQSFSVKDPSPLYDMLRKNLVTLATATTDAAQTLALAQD
Briefly: Competitive fluorescence polarization assay for MDMX. Type of assay: binding. The settings on record: competitive FP assay; for IC50: read-out: IC50 (MDMX); for Ki: read-out: Ki (MDMX).

A further assay deals with Caspase 3. Briefly: Caspase 3 detection assay in SJSA1 cells. The class given is cell-based. The conditions noted are these: 48 h, Caspase 3 activation over DMSO-treated cells; for caspase 0.3 uM: 0.3 uM peptide; for caspase 3 uM: 3 uM peptide; for caspase 10 uM: 10 uM peptide; for caspase 30 uM: 30 uM peptide.
Another assay has as its system SJSA-1 cells. The assay is described as follows: Cell lysis by peptidomimetic macrocycles (LDH release). Type of assay: cell-based. The conditions noted are these: 1 h at 37C.

Where a SMILES comes first, the peptide text is derived from it. Bridges are numbered along the chain shown (N, C = ends). [ ]: non-standard residue; d: D form. R8 = C=CCCCCCC[C@@](C)(N)C(=O)O; hLeu = CC(C)CC[C@H](N)C(=O)O; S5 = C=CCCC[C@](C)(N)C(=O)O Some results are limits rather than exact numbers.

Chain of MDM2 (Q00987 1-125): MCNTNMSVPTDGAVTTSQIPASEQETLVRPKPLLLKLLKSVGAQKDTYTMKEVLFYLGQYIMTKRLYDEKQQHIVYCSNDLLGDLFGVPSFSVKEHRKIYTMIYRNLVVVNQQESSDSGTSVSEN

For the compound `CC(=O)N[C@@H](CC(C)C)C(=O)N[C@H](C(=O)N[C@@H](Cc1ccccc1)C(=O)N[C@]1(C)CCCCCC/C=C/CCC[C@@](C)(C(=O)N[C@@H](CO)C(=O)N[C@@H](C)C(=O)N[C@@H](C)C(N)=O)NC(=O)[C@H](CCC(C)C)NC(=O)[C@H](CCC(N)=O)NC(=O)[C@H](C)NC(=O)[C@H](Cc2c[nH]c3ccccc23)NC(=O)[C@H](Cc2ccc(O)cc2)NC(=O)[C@H](C)NC1=O)[C@@H](C)O` [compound 115] (Ac-LTF[R8]AYWAQ[hLeu][S5]SAA-NH2; staple (E) 4-11), at MDM2, the IC50 is below 10 nM and the Ki was below 10 nM. On MDMX, the IC50 lay in the range of 100 to 1000 nM and the Ki lay in the range of 10 to 100 nM. In addition, in the assay on Caspase 3, the “caspase 0.3 uM” value is 1, the “caspase 3 uM” value is recorded as 10, the “caspase 10 uM” value came out at 26 and the “caspase 30 uM” value is recorded as 32. Besides, in the assay on SJSA-1 cells, the “6.25 uM % Lysed cells (1 h LDH)” value was found to be 0%, the “25 uM % Lysed cells (1 h LDH)” value is −1% and the “50 uM % Lysed cells (1 h LDH)” value is reported as 6%.

As to `CC(=O)N[C@@H](CC(C)C)C(=O)N[C@H](C(=O)N[C@@H](Cc1ccccc1)C(=O)N[C@]1(C)CCCCCCC=CCCC[C@@](C)(C(=O)N[C@@H](CO)C(=O)N[C@H](C(=O)N[C@@H](CO)C(N)=O)C(C)C)NC(=O)[C@H](CC(C)C)NC(=O)[C@H](CCC(N)=O)NC(=O)[C@H](C)NC(=O)[C@H](Cc2c[nH]c3ccccc23)NC(=O)[C@H](Cc2ccc(O)cc2)NC(=O)[C@H](C)NC1=O)[C@@H](C)O` [compound 121] (Ac-LTF[R8]AYWAQL[S5]SVS-NH2; staple 4-11), on MDM2, the IC50 is below 10 nM and the inhibition constant (Ki) was below 10 nM. On MDMX, the half-inhibitory concentration (IC50) was 100 to 1000 nM and the Ki lay within 10 to 100 nM. For the same compound, in the assay with Caspase 3, the “caspase 0.3 uM” value came out at 1, the “caspase 3 uM” value is given as 5, the “caspase 10 uM” value amounted to 19 and the “caspase 30 uM” value came to 30. In the assay with SJSA-1 cells, the “6.25 uM % Lysed cells (1 h LDH)” value is 1%, the “25 uM % Lysed cells (1 h LDH)” value amounted to 1% and the “50 uM % Lysed cells (1 h LDH)” value was determined as 7%.

On to `CC(=O)N[C@@H](CC(C)C)C(=O)N[C@H](C(=O)N[C@@H](Cc1ccccc1)C(=O)N[C@]1(C)CCCCCCC=CCCC[C@@](C)(C(=O)N[C@@H](CO)C(=O)N[C@@H](C)C(=O)N[C@@H](CO)C(N)=O)NC(=O)[C@H](CC(C)C)NC(=O)[C@H](CCC(N)=O)NC(=O)[C@H](C)NC(=O)[C@H](Cc2c[nH]c3ccccc23)NC(=O)[C@H](Cc2ccc(O)cc2)NC(=O)[C@H](C)NC1=O)[C@@H](C)O` [compound 122] (Ac-LTF[R8]AYWAQL[S5]SAS-NH2; staple 4-11), for which, at MDM2, the 50% inhibitory concentration (IC50) is below 10 nM and the inhibition constant (Ki) is below 10 nM. In addition, on MDMX, the IC50 lay in the range of 100 to 1000 nM and the Ki is 10 to 100 nM. Moreover, in the assay with Caspase 3, the “caspase 0.3 uM” value amounted to 1, the “caspase 3 uM” value was found to be 2, the “caspase 10 uM” value is listed as 15 and the “caspase 30 uM” value is listed as 30. Further, in the assay with SJSA-1 cells, the “6.25 uM % Lysed cells (1 h LDH)” value worked out at 1%, the “25 uM % Lysed cells (1 h LDH)” value came out at 0% and the “50 uM % Lysed cells (1 h LDH)” value was 6%.

For `CC(=O)N[C@@H](CC(C)C)C(=O)N[C@H](C(=O)N[C@@H](Cc1ccccc1)C(=O)N[C@]1(C)CCCCCCC=CCCC[C@@](C)(C(=O)N[C@@H](CO)C(=O)N[C@H](C(=O)NCC(N)=O)C(C)C)NC(=O)[C@H](CC(C)C)NC(=O)[C@H](CCC(N)=O)NC(=O)[C@H](C)NC(=O)[C@H](Cc2c[nH]c3ccccc23)NC(=O)[C@H](Cc2ccc(O)cc2)NC(=O)[C@H](C)NC1=O)[C@@H](C)O` [compound 123] (Ac-LTF[R8]AYWAQL[S5]SVG-NH2; staple 4-11), at MDM2, the 50% inhibitory concentration (IC50) was below 10 nM and the inhibition constant Ki is below 10 nM. For the same compound, on MDMX, the IC50 was 100 to 1000 nM and the inhibitory constant (Ki) fell in the range of 10 to 100 nM. Besides, in the assay on Caspase 3, the “caspase 0.3 uM” value came to 1, the “caspase 3 uM” value is given as 1, the “caspase 10 uM” value was 6 and the “caspase 30 uM” value is listed as 14. Besides, in the assay with SJSA-1 cells, the “6.25 uM % Lysed cells (1 h LDH)” value is listed as −2%, the “25 uM % Lysed cells (1 h LDH)” value is given as 5% and the “50 uM % Lysed cells (1 h LDH)” value is 3%.

Turning to `CC(=O)N[C@@H](CCC(=O)O)C(=O)N[C@H](C(=O)N[C@@H](Cc1ccccc1)C(=O)N[C@]1(C)CCCCCCC=CCCC[C@@](C)(C(=O)N[C@@H](CO)C(=O)N[C@@H](C)C(=O)N[C@@H](C)C(N)=O)NC(=O)[C@H](CC(C)C)NC(=O)[C@H](CCC(N)=O)NC(=O)[C@H](C)NC(=O)[C@H](Cc2c[nH]c3ccccc23)NC(=O)[C@H](Cc2ccc(O)cc2)NC(=O)[C@H](C(C)C)NC1=O)[C@@H](C)O` [compound 125] (Ac-ETF[R8]VYWAQL[S5]SAA-NH2; staple 4-11), on MDM2, the 50% inhibitory concentration (IC50) is below 10 nM and the Ki was below 10 nM. For the same compound, on MDMX, the IC50 lay within 100 to 1000 nM and the Ki lay in the range of 10 to 100 nM. Moreover, in the assay on Caspase 3, the “caspase 0.3 uM” value was found to be 1, the “caspase 3 uM” value is reported as 3, the “caspase 10 uM” value worked out at 9 and the “caspase 30 uM” value was 29. Also, in the assay on SJSA-1 cells, the “6.25 uM % Lysed cells (1 h LDH)” value was determined as 0%, the “25 uM % Lysed cells (1 h LDH)” value is 0% and the “50 uM % Lysed cells (1 h LDH)” value was determined as 2%.

As to `CC(=O)N[C@@H](CCC(=O)O)C(=O)N[C@H](C(=O)N[C@@H](Cc1ccccc1)C(=O)N[C@]1(C)CCCCCCC=CCCC[C@@](C)(C(=O)N[C@@H](CO)C(=O)N[C@H](C(=O)N[C@@H](C)C(N)=O)C(C)C)NC(=O)[C@H](CC(C)C)NC(=O)[C@H](CCC(N)=O)NC(=O)[C@H](C)NC(=O)[C@H](Cc2c[nH]c3ccccc23)NC(=O)[C@H](Cc2ccc(O)cc2)NC(=O)[C@H](C(C)C)NC1=O)[C@@H](C)O` [compound 126] (Ac-ETF[R8]VYWAQL[S5]SVA-NH2; staple 4-11), at MDM2, the IC50 is below 10 nM and the inhibition constant (Ki) is below 10 nM. Moreover, at MDMX, the IC50 lay in the range of 100 to 1000 nM and the Ki was 10 to 100 nM. Further, in the assay on Caspase 3, the “caspase 0.3 uM” value came out at 1, the “caspase 3 uM” value is on record as 1, the “caspase 10 uM” value was determined as 6 and the “caspase 30 uM” value is 30. Further, in the assay on SJSA-1 cells, the “6.25 uM % Lysed cells (1 h LDH)” value was 1%, the “25 uM % Lysed cells (1 h LDH)” value is on record as 1% and the “50 uM % Lysed cells (1 h LDH)” value was 1%.

Turning to `CC(=O)N[C@@H](CCC(=O)O)C(=O)N[C@H](C(=O)N[C@@H](Cc1ccccc1)C(=O)N[C@]1(C)CCCCCCC=CCCC[C@@](C)(C(=O)N[C@@H](CO)C(=O)N[C@H](C(=O)N[C@@H](CO)C(N)=O)C(C)C)NC(=O)[C@H](CC(C)C)NC(=O)[C@H](CCC(N)=O)NC(=O)[C@H](C)NC(=O)[C@H](Cc2c[nH]c3ccccc23)NC(=O)[C@H](Cc2ccc(O)cc2)NC(=O)[C@H](C(C)C)NC1=O)[C@@H](C)O` [compound 130] (Ac-ETF[R8]VYWAQL[S5]SVS-NH2; staple 4-11), on MDM2, the concentration for half-maximal inhibition (IC50) is below 10 nM and the Ki is below 10 nM. Besides, at MDMX, the 50% inhibitory concentration (IC50) lay in the range of 100 to 1000 nM and the inhibition constant Ki is 10 to 100 nM. For the same compound, in the assay with Caspase 3, the “caspase 0.3 uM” value worked out at 1, the “caspase 3 uM” value was 2, the “caspase 10 uM” value is reported as 6 and the “caspase 30 uM” value was determined as 17. In the assay on SJSA-1 cells, the “6.25 uM % Lysed cells (1 h LDH)” value is 1%, the “25 uM % Lysed cells (1 h LDH)” value is recorded as 0% and the “50 uM % Lysed cells (1 h LDH)” value is −1%.

Regarding `CC(=O)N[C@@H](CCC(=O)O)C(=O)N[C@H](C(=O)N[C@@H](Cc1ccccc1)C(=O)N[C@]1(C)CCCCCCC=CCCC[C@@](C)(C(=O)N[C@@H](CO)C(=O)N[C@@H](C)C(=O)N[C@@H](C)C(N)=O)NC(=O)[C@H](CC(C)C)NC(=O)[C@H](CCC(N)=O)NC(=O)[C@H](C)NC(=O)[C@H](Cc2c[nH]c3ccccc23)NC(=O)[C@H](Cc2ccc(O)cc2)NC(=O)[C@H](CCC(=O)O)NC1=O)[C@@H](C)O` [compound 161] (Ac-ETF[R8]EYWAQL[S5]SAA-NH2; staple 4-11), at MDM2, the IC50 was below 10 nM and the Ki was below 10 nM. At MDMX, the half-inhibitory concentration (IC50) lay in the range of 100 to 1000 nM and the Ki fell in the range of 10 to 100 nM. In addition, in the assay on Caspase 3, the “caspase 0.3 uM” value came out at 2, the “caspase 3 uM” value stood at 8, the “caspase 10 uM” value is 14 and the “caspase 30 uM” value came out at 22. In the assay with SJSA-1 cells, the “6.25 uM % Lysed cells (1 h LDH)” value is given as 1%, the “25 uM % Lysed cells (1 h LDH)” value is on record as −1% and the “50 uM % Lysed cells (1 h LDH)” value came to 0%.

For `CC[C@H](C)[C@H](NC(=O)[C@H](C)NC(=O)[C@H](C)NC(=O)[C@]1(C)CCCC=CCCCCCC[C@@](C)(NC(=O)[C@H](Cc2ccccc2)NC(=O)[C@@H](NC(=O)[C@H](CC(C)C)NC(C)=O)[C@@H](C)O)C(=O)N[C@@H](C)C(=O)N[C@@H](Cc2c[nH]cn2)C(=O)N[C@@H](Cc2c[nH]c3ccccc23)C(=O)N[C@@H](C)C(=O)N[C@@H](CCC(N)=O)C(=O)N[C@@H](CC(C)C)C(=O)N1)C(=O)N[C@H](C)C(N)=O` [compound 170] (Ac-LTF[R8]AHWAQL[S5]AAI[dA]-NH2; staple 4-11), at MDM2, the IC50 was below 10 nM and the Ki is below 10 nM. Moreover, on MDMX, the half-maximal inhibitory concentration (IC50) fell in the range of 100 to 1000 nM and the Ki was in the range of 10 to 100 nM. Also, in the assay with Caspase 3, the “caspase 0.3 uM” value turned out to be 1, the “caspase 3 uM” value is on record as 1, the “caspase 10 uM” value is on record as 16 and the “caspase 30 uM” value was determined as 20. In the assay with SJSA-1 cells, the “6.25 uM % Lysed cells (1 h LDH)” value was found to be 2%, the “25 uM % Lysed cells (1 h LDH)” value is reported as 1% and the “50 uM % Lysed cells (1 h LDH)” value is recorded as −1%.

Source of the values: US8927500B2, “Peptidomimetic macrocycles” (Aileron Therapeutics, Inc., priority 2012, dated 2015).
